Source: patent US10604489B2, “Compounds for the treatment of pain” (priority 2018, dated 2020)
Like-named read-outs stand apart in the source and are kept apart here.

Assays:
μ-receptor = μ-receptor (Homo sapiens (Human), UniProt P35372); experiment: Receptor binding, competitive displacement of [3H]DAMGO; settings: 0.25 nM [3H]DAMGO, CHO cell membrane protein, 60 min at 25° C.
Outline: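 Membranes from CHO cells stably expressing cloned human μ-opioid receptor incubated 60 min at 25 °C with 12 compound concentrations and 0.25 nM [3H]DAMGO in 50 mM Tris-HCl pH 7.5; nonspecific binding with 10 μM naloxone. Filtration and scintillation counting; Ki from IC50 by Cheng-Prusoff.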

human μ opioid receptor [1] = target: T1, human μ opioid receptor (Homo sapiens (Human), UniProt P35372); experiment: Functional activity ([35S]GTPγS binding); format: biochemical; settings: [35S]GTPγS 0.080 nM, CHO cell membranes, 60 min at 30° C., filtration
Outline: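 Membranes from stably transfected CHO cells (7.5 μg) incubated with 12 test-compound concentrations and 0.080 nM [35S]GTPγS in 50 mM Tris-HCl pH 7.4, 3 mM MgCl2, 0.2 mM EGTA, 3 μM GDP, 100 mM NaCl, 60 min at 30° C. Nonspecific binding defined with 10 μM GTPγS; bound label collected by filtration and scintillation counting.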

Male Sprague-Dawley rats [2] = experiment: animal or person; format: in vivo, rat
Male Sprague-Dawley rats [3] = settings: rat
human μ opioid receptor [4] = target: T1, human μ opioid receptor; experiment: Alternate functional activity ([35S]GTPγS binding) assay, SPA beads; format: biochemical; settings: alternate assay: [35S]GTPγS 0.020 nM, CHO cell membranes with WGA PVT SPA beads
Description: The [^35S]GTPγS assay measures the functional properties of a compound by quantifying the level of G-protein activation following agonist binding in studies using stably transfected cells, and is considered to be a measure of the efficacy of a compound. Membranes from CHO (Chinese Hamster Ovary) cells that stably expressed one type of the cloned human opioid receptor human were used in the experiments. The assay buffer consisted of 50 mM Tris-HCl, pH 7.4, 3 mM MgCl2, 0.2 mM EGTA, 5 μM GDP, and 100 mM NaCl. CHO cell membranes stably expressing the human p opioid receptor were pre-incubated with scintillation proximity assay beads from PerkinElmer® (WGA PVT SPA) for 30 minutes, at 8 µg membrane and […] beads in a volume of 0.1 mL per reaction. In a final volume of 0.2 mL, 11 different concentrations of each test compound were incubated with the membrane-SPA bead mixture and a final concentration of 0.020 nM [35S]GTPγS for 1.5 hours with gentle shaking. Reactions were then incubated for 5 hours. Data are the mean EC50 values ±S.E.M. EC50 values (nM) for compounds 12, 16, 19, 20, 149, 151, 152, 157, 160, 161, 164-169, 172, 173, 180-197, and 199-207 are shown in Table 1.

[5] = sc, minimum dose at which maximal reversal of hind paw weight bearing (50±0.5%) was achieved, subcutaneous administration, rat, read-out: MEMD SC CFA
[6] = maximum pCO2 within 2 hours of administration, dose 10× CFA MEMD, subcutaneous
[7] = maximum pCO2 within 2 hours of administration, dose 100× CFA MEMD, subcutaneous
[8] = Rattus norvegicus, sc, read-out: MEMD SC CFA (mg/kg)

| SMILES | Ki (μ-receptor) | EC50 (human μ opioid receptor [1]) | minimal effective dose (Male Sprague-Dawley rats [2]; [5]) | <60 mmHg @ 10X CFA MEMD (Male Sprague-Dawley rats [3]; [6]) | <60 mmHg @ 100X CFA MEMD (Male Sprague-Dawley rats [3]; [7]) | minimal effective dose (Male Sprague-Dawley rats [2]; [8]) | <60 mmHg @ 10X CFA MEMD (Male Sprague-Dawley rats [3]; in vivo, sc) | minimal effective dose (Male Sprague-Dawley rats [2]; po, minimum dose at which maximal reversal of hind paw weight bearing was achieved, dosed orally, rat, read-out: MEMD SC CFA) | <60 mmHg @ 100X CFA MEMD (Male Sprague-Dawley rats [3]; maximum pCO2 within 2 hours of administration, dosed at 10 mg/kg) | EC50 (human μ opioid receptor [4]) |
| --- | --- | --- | --- | --- | --- | --- | --- | --- | --- | --- |
| COC1(c2ccnc(C(N)=O)c2)C2CCCC1CN(C1CCC3(CC1)COC3)C2.O=C(O)CC(O)C(=O)O [Compound 158, 4-((1R,5S,9r)-9-methoxy-3-(2-oxaspiro[3.5]nonan-7-yl)-3-azabicyclo[3.3.1]nonan-9-yl)picolinamide (S)-2-hydroxysuccinate] | 0.001 to 0.005 µM | 0.01 to 0.075 µM | 0.1 mg/kg | + (resulted in a maximum pCO2 value of less than 60 mmHg within 2 hours of administration) | + (resulted in a maximum pCO2 value of less than 60 mmHg within 2 hours of administration) |  |  |  |  |  |
| COC1(c2ccnc(C(N)=O)c2)C2CCCC1CN(Cc1cn(C)cn1)C2.Cl [Compound 123, 4-((1R,5S,9r)-9-methoxy-3-((1-methyl-1H-imidazol-4-yl)methyl)-3-azabicyclo[3.3.1]nonan-9-yl)picolinamide hydrochloride] | 0.001 to 0.005 µM | 0.01 to 0.075 µM | 1 mg/kg | + (resulted in a maximum pCO2 value of less than 60 mmHg within 2 hours of administration) |  |  |  |  |  |  |
| CN1CC[C@]23c4c5ccc(O)c4O[C@H]2[C@@H](O)C=C[C@H]3[C@H]1C5 [Morphine, reference compound] |  |  |  |  |  | 3 mg/kg | − (key: −: resulted in a maximum pCO2 value of greater than 60 mmHg within 2 hours of administration; +: resulted in a maximum pCO2 value of less than 60 mmHg within 2 hours of administration) |  |  |  |
| COC1(c2cccc(C(N)=O)c2)C2CCCC1CN(CC1CC1)C2.Cl [Compound 22, 3-((1R,5S,9r)-3-(cyclopropylmethyl)-9-methoxy-3-azabicyclo[3.3.1]nonan-9-yl)benzamide hydrochloride] | < 0.001 µM | < 0.01 µM | 0.1 mg/kg | + (resulted in a maximum pCO2 value of less than 60 mmHg within 2 hours of administration) | − (resulted in a maximum pCO2 value of greater than 60 mmHg within 2 hours of administration) |  |  |  |  |  |
| COC1(c2cccc(C(N)=O)c2)C2CCCC1CN(C)C2.Cl [Compound 23, 3-((1R,5S,9r)-9-methoxy-3-methyl-3-azabicyclo[3.3.1]nonan-9-yl)benzamide hydrochloride] | < 0.001 µM | < 0.01 µM | 0.1 mg/kg | + (resulted in a maximum pCO2 value of less than 60 mmHg within 2 hours of administration) | + (resulted in a maximum pCO2 value of less than 60 mmHg within 2 hours of administration) |  |  |  |  |  |
| COC1(c2ccnc(C(N)=O)c2)C2CCCC1CN(CC1CCOCC1)C2.Cl [Compound 127, 4-((1R,5S,9r)-9-methoxy-3-((tetrahydro-2H-pyran-4-yl)methyl)-3-azabicyclo[3.3.1]nonan-9-yl)picolinamide hydrochloride] | 0.001 to 0.005 µM | 0.01 to 0.075 µM | 0.1 mg/kg | + (resulted in a maximum pCO2 value of less than 60 mmHg within 2 hours of administration) | + (resulted in a maximum pCO2 value of less than 60 mmHg within 2 hours of administration) |  |  |  |  |  |
| CCCN1CC2CCCC(C1)C2(OC)c1ccnc(C(N)=O)c1.Cl [Compound 91, 4-((1R,5S,9r)-9-methoxy-3-propyl-3-azabicyclo[3.3.1]nonan-9-yl)picolinamide hydrochloride] | 0.001 to 0.005 µM | 0.01 to 0.075 µM |  |  |  |  |  | 3 mg/kg | + (dosed at 10 mg/kg) (resulted in a maximum pCO2 value of less than 60 mmHg within 2 hours of administration) |  |
| COC1(c2ccnc(C(N)=O)c2)C2CCCC1CNC2.Cl [Compound 70, 4-((1R,5S,9r)-9-methoxy-3-azabicyclo[3.3.1]nonan-9-yl)picolinamide hydrochloride] | 0.001 to 0.005 µM | > 0.075 µM | 1 mg/kg | + (resulted in a maximum pCO2 value of less than 60 mmHg within 2 hours of administration) | + (resulted in a maximum pCO2 value of less than 60 mmHg within 2 hours of administration) |  |  |  |  |  |
| COC1(c2cccc(C(N)=O)c2)C2CCCC1CN([C@H]1CCCOC1)C2.Cl (single isomer, unassigned) [Compound 140] |  |  | 0.1 mg/kg | + (resulted in a maximum pCO2 value of less than 60 mmHg within 2 hours of administration) |  |  |  |  |  |  |
| COC1(c2cccc(C(N)=O)c2)C2CCCC1CN(CC1(O)CC1)C2.Cl [Compound 46, 3-((1R,5S,9r)-3-((1-hydroxycyclopropyl)methyl)-9-methoxy-3-azabicyclo[3.3.1]nonan-9-yl)benzamide hydrochloride] | < 0.001 µM | 0.01 to 0.075 µM | 1 mg/kg | + (resulted in a maximum pCO2 value of less than 60 mmHg within 2 hours of administration) |  |  |  |  |  |  |
| COC1(c2ccnc(C(N)=O)c2)C2CCCC1CN([C@@H]1CCCOC1)C2.Cl (stereo partly drawn) [Compound 60, 4-((1R,5S,9R)-9-methoxy-3-((R)-tetrahydro-2H-pyran-3-yl)-3-azabicyclo[3.3.1]nonan-9-yl)picolinamide hydrochloride] | 0.001 to 0.005 µM | > 0.075 µM | 0.3 mg/kg | + (resulted in a maximum pCO2 value of less than 60 mmHg within 2 hours of administration) | + (resulted in a maximum pCO2 value of less than 60 mmHg within 2 hours of administration) |  |  |  |  |  |
| COC1(c2ccnc(C(N)=O)c2)C2CCCC1CN(C)C2.Cl [Compound 43, 4-((1R,5S,9r)-9-methoxy-3-methyl-3-azabicyclo[3.3.1]nonan-9-yl)picolinamide hydrochloride] | < 0.001 µM | 0.01 to 0.075 µM | 0.1 mg/kg | + (resulted in a maximum pCO2 value of less than 60 mmHg within 2 hours of administration) | + (resulted in a maximum pCO2 value of less than 60 mmHg within 2 hours of administration) |  |  |  |  |  |
| COC[C@H](C)N1CC2CCCC(C1)C2(OC)c1ccnc(C(N)=O)c1.Cl (single isomer, unassigned) [Compound 61] |  |  | 0.3 mg/kg | + (resulted in a maximum pCO2 value of less than 60 mmHg within 2 hours of administration) | + (resulted in a maximum pCO2 value of less than 60 mmHg within 2 hours of administration) |  |  |  |  |  |
| COC1(c2ccnc(C(N)=O)c2)C2CCCC1CN(CC1CC1)C2.Cl [Compound 27, 4-((1R,5S,9r)-3-(cyclopropylmethyl)-9-methoxy-3-azabicyclo[3.3.1]nonan-9-yl)picolinamide hydrochloride] | 0.001 to 0.005 µM | 0.01 to 0.075 µM | 0.01 mg/kg |  | + (resulted in a maximum pCO2 value of less than 60 mmHg within 2 hours of administration) |  |  |  |  |  |
| COc1ccc2c3c1O[C@H]1C(=O)CC[C@@]4(O)[C@@H](C2)N(C)CC[C@]314 [Oxycodone, reference compound] |  |  |  |  |  | 3 mg/kg | − (key: −: resulted in a maximum pCO2 value of greater than 60 mmHg within 2 hours of administration; +: resulted in a maximum pCO2 value of less than 60 mmHg within 2 hours of administration) |  |  |  |
| CCOC1(c2ccnc(C(N)=O)c2)C2CCCC1CNC2 (centres unmarked) [Compound 161] |  |  | 0.3 mg/kg |  |  |  |  |  |  | 0.01 to 0.075 µM |
| COC1(c2cccc(C(N)=O)c2)C2CCCC1CN(CCN1C(=O)CCC1=O)C2.Cl [Compound 65, 3-((1R,5S,9r)-3-(2-(2,5-dioxopyrrolidin-1-yl)ethyl)-9-methoxy-3-azabicyclo[3.3.1]nonan-9-yl)benzamide hydrochloride] | < 0.001 µM | < 0.01 µM | 0.1 mg/kg |  |  |  |  |  |  |  |
| COC1(c2cccc(C(N)=O)c2)C2CCCC1CN(CCN1CCNC1=O)C2.Cl [Compound 63, 3-((1R,5S,9r)-9-methoxy-3-(2-(2-oxoimidazolidin-1-yl)ethyl)-3-azabicyclo[3.3.1]nonan-9-yl)benzamide hydrochloride] | < 0.001 µM | 0.01 to 0.075 µM | > 1 mg/kg |  |  |  |  |  |  |  |
